Target: T1, P2X7 receptor (Homo sapiens, UniProt Q99572)
T1 construct: endogenous in cells; host or cells: THP-1 cells differentiated with LPS and IFN-γ
T1 sequence (Q99572 1-595): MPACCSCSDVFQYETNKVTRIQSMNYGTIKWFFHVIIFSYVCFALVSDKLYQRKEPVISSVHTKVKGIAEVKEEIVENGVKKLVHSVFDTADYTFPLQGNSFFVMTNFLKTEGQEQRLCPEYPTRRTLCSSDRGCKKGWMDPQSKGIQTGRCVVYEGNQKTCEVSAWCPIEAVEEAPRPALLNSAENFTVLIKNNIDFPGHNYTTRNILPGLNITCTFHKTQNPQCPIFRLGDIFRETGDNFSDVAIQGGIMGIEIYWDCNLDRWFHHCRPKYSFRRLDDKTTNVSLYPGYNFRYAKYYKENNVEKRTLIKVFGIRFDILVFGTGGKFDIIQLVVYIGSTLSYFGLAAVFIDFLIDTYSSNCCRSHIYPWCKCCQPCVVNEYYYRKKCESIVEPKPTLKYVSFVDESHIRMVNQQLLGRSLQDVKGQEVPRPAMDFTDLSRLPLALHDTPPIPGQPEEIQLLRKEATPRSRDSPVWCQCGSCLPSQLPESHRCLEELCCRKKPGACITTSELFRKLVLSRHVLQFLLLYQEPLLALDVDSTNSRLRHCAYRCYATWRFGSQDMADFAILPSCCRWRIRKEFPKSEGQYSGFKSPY
Assay: IL-1β release assay in differentiated THP-1 cells stimulated with BzATP (Example 9)
Assay type: cell-based
Details: for inhibition at 0.1 µM: 0.1 μM concentration; for inhibition at 0.1 µM / inhibition at 0.3 µM: read-out: IL-1β % Inhib. @ 0.3 or 0.1 μM; for inhibition at 0.3 µM: 0.3 μM concentration; for IC50: four parameter logistic fit, read-out: IL-1β IC50
Experimental: The cells are then pretreated for 30 minutes with the compound of interest at the appropriate concentration in RPMI media containing 100 IU/mL penicillin, 100 ug/mL streptomycin. […] 30 uL of cell supernatant is then collected and IL-1β levels determined via ELISA (R&D systems Cat. # HSLB50) according to manufacturer's recommendations using the Tecan Safire plate reader. Background adjusted IL-1β levels of drug treated and non-treated cells are used to calculate the percent inhibition.
The compounds set forth in Table 1 were tested for activity in a cellular model as described herein. […] Measurements were made and IC50 values, presented in Table 2, below, were determined by fitting the data to a four parameter logistic equation using GraphPad Prism software (GraphPad Software, Inc). The equation may be expressed by the following formula:
Y=Bottom+(Top-Bottom)/(1+10̂((Log EC50−X)*HillSlope))
Where X is the logarithm of concentration, Y is the response and Y starts at Bottom and goes to Top with a sigmoid shape.

Row | Compound | inhibition at 0.1 µM | inhibition at 0.3 µM | IC50
1 | CCOC(=O)N1CCC(n2ccc3c(NC(=O)c4ccc(C)cc4C)cccc3c2=O)CC1 [ID 766] | 0 to 25% |  | 
2 | CCOC(=O)N1CCC(n2ccc3c(NC(=O)c4cc(C)ccc4C)cccc3c2=O)CC1 [ID 767] | 0 to 25% |  | 
3 | CCOC(=O)N1CCC(n2ccc3c(NC(=O)c4cc(Cl)cc(Cl)c4)cccc3c2=O)CC1 [ID 768] | 0 to 25% |  | 
4 | CCOC(=O)N1CCC(n2ccc3c(NC(=O)c4cc(OC)cc(OC)c4)cccc3c2=O)CC1 [ID 769] | 26 to 50% |  | 
5 | CCOC(=O)N1CCC(n2ccc3c(NC(=O)c4ccc(OCC)cc4)cccc3c2=O)CC1 [ID 771] | 0 to 25% |  | 
6 | CCOC(=O)N1CCC(n2ccc3c(NC(=O)CCc4ccc(OC)cc4)cccc3c2=O)CC1 [ID 776] | 0 to 25% |  | 
7 | CCOC(=O)N1CCC(n2ccc3c(NC(=O)Cc4ccccc4Cl)cccc3c2=O)CC1 [ID 778] | 0 to 25% |  | 
8 | CCOC(=O)N1CCC(n2ccc3c(NC(=O)Cc4ccccc4OC)cccc3c2=O)CC1 [ID 779] | 0 to 25% |  | 
9 | CCOC(=O)N1CCC(n2ccc3c(NC(=O)Cc4cc(OC)ccc4OC)cccc3c2=O)CC1 [ID 780] | 0 to 25% |  | 
10 | CCOC(=O)N1CCC(n2ccc3c(NC(=O)Cc4ccc(OC)c(OC)c4)cccc3c2=O)CC1 [ID 783] | 0 to 25% |  | 
11 | CCOC(=O)N1CCC(n2ccc3c(NC(=O)Cc4ccc(OC)cc4)cccc3c2=O)CC1 [ID 785] | 0 to 25% |  | 
12 | CCOC(=O)N1CCC(n2ccc3c(NC(=O)Cc4ccc(OCC)cc4)cccc3c2=O)CC1 [ID 786] | 0 to 25% |  | 
13 | CCOC(=O)N1CCC(n2ccc3c(NC(=O)CCCc4ccccc4)cccc3c2=O)CC1 [ID 788] | 0 to 25% |  | 
14 | CCOC(=O)N1CCC(n2ccc3c(NC(=O)c4cc5ccccc5o4)cccc3c2=O)CC1 [ID 789] | 0 to 25% |  | 
15 | CCOC(=O)N1CCC(n2ccc3c(NC(=O)Cc4ccc5c(c4)OCO5)cccc3c2=O)CC1 [ID 790] | 0 to 25% |  | 
16 | CCOC(=O)N1CCC(n2ccc3c(NC(=O)Cc4cc(OC)cc(OC)c4)cccc3c2=O)CC1 [ID 791] | 0 to 25% |  | 
17 | CCOC(=O)N1CCC(n2ccc3c(NC(=O)c4cc(C)c(OC)c(C)c4)cccc3c2=O)CC1 [ID 792] | 0 to 25% |  | 
18 | CCOC(=O)N1CCC(n2ccc3c(NC(=O)C45CC6C[C@H](C4)C[C@@](O)(C6)C5)cccc3c2=O)CC1 [ID 796] | 0 to 25% |  | 
19 | CCOC(=O)N1CCC(n2ccc3c(NC(=O)[C@@]45C[C@@H]6C[C@@H](C[C@@H]4C6)C5)cccc3c2=O)CC1 [ID 797] | 0 to 25% |  | 
20 | CCOC(=O)N1CCC(n2ccc3c(NC(=O)c4cccc5c4OCCO5)cccc3c2=O)CC1 [ID 798] | 0 to 25% |  | 

Row | Compound | inhibition at 0.1 µM | inhibition at 0.3 µM | IC50
21 | CCOC(=O)N1CCC(n2ccc3c(NC(=O)c4ccc5c(c4)OCCCO5)cccc3c2=O)CC1 [ID 799] | 0 to 25% |  | 
22 | CCOC(=O)N1CCC(n2ccc3c(NC(=O)c4cccc(Cl)c4C)cccc3c2=O)CC1 [ID 801] | 0 to 25% |  | 
23 | CCOC(=O)N1CCC(n2ccc3c(NC(=O)Cc4ccc(OC)cc4OC)cccc3c2=O)CC1 [ID 804] | 0 to 25% |  | 
24 | CCOC(=O)N1CCC(n2ccc3c(NC(=O)c4cccc(C)c4Cl)cccc3c2=O)CC1 [ID 808] | 0 to 25% |  | 
25 | CCOC(=O)N1CCC(n2ccc3c(NC(=O)c4ccc(OC)c(C)c4)cccc3c2=O)CC1 [ID 809] | 0 to 25% |  | 
26 | CCOC(=O)N1CCC(n2ccc3c(NC(=O)CCc4ccc(C)cc4C)cccc3c2=O)CC1 [ID 810] | 0 to 25% |  | 
27 | CCOC(=O)N1CCC(n2ccc3c(NC(=O)c4ccc(CC(C)C)cc4)cccc3c2=O)CC1 [ID 812] | 0 to 25% |  | 
28 | O=C(CC1(O)CCCCCC1)Nc1cccc2c(=O)n(C3CCNCC3)ccc12 [ID 813] |  | 0 to 25% | 760 nM
29 | O=C(Cc1ccc(Cl)c(Cl)c1)Nc1cccc2c(=O)n(C3CCNC3)ccc12 (stereo not shown) [ID 815] |  | > 76% | 125 nM
30 | CC(C(=O)Nc1cccc2c(=O)n(C3CCNCC3)ccc12)c1ccc(Cl)cc1 (stereo not shown) [ID 817] |  | 0 to 25% | 902 nM
31 | O=C(Cc1ccc(Cl)c(C(F)(F)F)c1)Nc1cccc2c(=O)n(C3CCNCC3)ccc12 [ID 818] |  | > 76% | 99 nM
32 | O=C(CC1CCCCCC1)Nc1cccc2c(=O)n(C3CCNCC3)ccc12 [ID 819] |  | 51 to 75% | 206 nM
33 | O=C(CC1CCCCCC1)Nc1cccc2c(=O)n(C3CCNC3)ccc12 (stereo not shown) [ID 820] |  | > 76% | 25.7 nM
34 | O=C(Cc1ccc(Cl)c(Cl)c1)Nc1cccc2c(=O)n([C@H]3CCNC3)ccc12 [ID 822] |  | > 76% | 31.3 nM
35 | CC(C(=O)Nc1cccc2c(=O)n([C@H]3CCNC3)ccc12)c1ccc(Cl)cc1 (stereo partly shown) [ID 823] |  | > 76% | 42.5 nM
36 | O=C(CC1CCCCCC1)Nc1cccc2c(=O)n([C@H]3CCNC3)ccc12 [ID 824] |  | > 76% | 3.2 nM
37 | O=C(Cc1ccc(Cl)c(Cl)c1)Nc1cccc2c(=O)n([C@@H]3CCNC3)ccc12 [ID 827] |  | > 76% | 25.5 nM
38 | C[C@H](C(=O)Nc1cccc2c(=O)n([C@H]3CCNC3)ccc12)c1ccc(Cl)c(Cl)c1 [ID 832] |  | > 76% | 73.6 nM
39 | O=C(Cc1ccc(Cl)c(C(F)(F)F)c1)Nc1cccc2c(=O)n([C@H]3CCNC3)ccc12 [ID 836] |  |  | 16 nM

Other lines, results leading:

Row | inhibition at 0.1 µM | inhibition at 0.3 µM | IC50 | Compound
40 | 0 to 25% |  |  | CCOC(=O)N1CCC(n2ccc3c(NC(=O)c4cccc(C)c4)cccc3c2=O)CC1 [ID 770]
41 | 0 to 25% |  |  | CCOC(=O)N1CCC(n2ccc3c(NC(=O)c4ccc(-c5ccccc5)cc4)cccc3c2=O)CC1 [ID 772]
42 | 26 to 50% |  |  | CCOC(=O)N1CCC(n2ccc3c(NC(=O)c4ccc(C(C)(C)C)cc4)cccc3c2=O)CC1 [ID 773]
43 | 0 to 25% |  |  | CCOC(=O)N1CCC(n2ccc3c(NC(=O)C(C)c4ccccc4)cccc3c2=O)CC1 (stereo not shown) [ID 774]
44 | 0 to 25% |  |  | CCOC(=O)N1CCC(n2ccc3c(NC(=O)CCc4ccccc4OC)cccc3c2=O)CC1 [ID 775]
45 | 0 to 25% |  |  | CCOC(=O)N1CCC(n2ccc3c(NC(=O)Cc4ccccc4F)cccc3c2=O)CC1 [ID 777]
46 | 0 to 25% |  |  | CCOC(=O)N1CCC(n2ccc3c(NC(=O)Cc4ccccc4C)cccc3c2=O)CC1 [ID 781]
47 | 0 to 25% |  |  | CCOC(=O)N1CCC(n2ccc3c(NC(=O)Cc4cccc(OC)c4)cccc3c2=O)CC1 [ID 782]
48 | 0 to 25% |  |  | CCOC(=O)N1CCC(n2ccc3c(NC(=O)Cc4cccc(C)c4)cccc3c2=O)CC1 [ID 784]
49 | 0 to 25% |  |  | CCOC(=O)N1CCC(n2ccc3c(NC(=O)Cc4ccc(C)cc4)cccc3c2=O)CC1 [ID 787]
50 | 0 to 25% |  |  | CCOC(=O)N1CCC(n2ccc3c(NC(=O)c4ccc(C)c(Cl)c4)cccc3c2=O)CC1 [ID 793]
51 | 0 to 25% |  |  | CCOC(=O)N1CCC(n2ccc3c(NC(=O)c4ccc(Cl)cc4C)cccc3c2=O)CC1 [ID 794]
52 | 0 to 25% |  |  | CCOC(=O)N1CCC(n2ccc3c(NC(=O)CC4C[C@@H]5CC[C@H]4C5)cccc3c2=O)CC1 (stereo partly shown) [ID 795]
53 | 0 to 25% |  |  | CCOC(=O)N1CCC(n2ccc3c(NC(=O)Cc4cc(C)cc(C)c4)cccc3c2=O)CC1 [ID 802]
54 | 0 to 25% |  |  | CCOC(=O)N1CCC(n2ccc3c(NC(=O)C4C[C@@H]5CC[C@H]4C5)cccc3c2=O)CC1 (stereo partly shown) [ID 803]
55 | 0 to 25% |  |  | CCOC(=O)N1CCC(n2ccc3c(NC(=O)Cc4ccccc4OCC)cccc3c2=O)CC1 [ID 805]
56 | 0 to 25% |  |  | CCOC(=O)N1CCC(n2ccc3c(NC(=O)Cc4ccc(OC)c(C)c4)cccc3c2=O)CC1 [ID 806]
57 | 0 to 25% |  |  | CCOC(=O)N1CCC(n2ccc3c(NC(=O)CCc4cccc(C)c4)cccc3c2=O)CC1 [ID 807]
58 | 0 to 25% |  |  | CCOC(=O)N1CCC(n2ccc3c(NC(=O)CCc4cccc(Cl)c4)cccc3c2=O)CC1 [ID 811]
59 |  | 26 to 50% | 305 nM | O=C(Cc1ccc(Cl)c(Cl)c1)Nc1cccc2c(=O)n(C3CCNCC3)ccc12 [ID 816]
60 |  | 51 to 75% | 252 nM | CC(C(=O)Nc1cccc2c(=O)n(C3CCNC3)ccc12)c1ccc(Cl)cc1 (stereo not shown) [ID 821]
61 |  | 51 to 75% | 154 nM | CC(C(=O)Nc1cccc2c(=O)n(C3CCNC3)ccc12)c1ccc(Cl)c(Cl)c1 (stereo not shown) [ID 831]
62 |  | 51 to 75% | 151 nM | CC(C(=O)Nc1cccc2c(=O)n([C@@H]3CCNC3)ccc12)c1ccc(Cl)cc1 (stereo partly shown) [ID 835]
63 |  | 51 to 75% | 275 nM | O=C(CC1(O)CCCCCC1)Nc1cccc2c(=O)n([C@@H]3CCNC3)ccc12 [ID 837]

Reference: patent US20090298825A1, “Bicycloheteroaryl Compounds as P2x7 Modulators and Uses Thereof” (priority 2006, published 2009)
